Results from PubChem BioAssay AID1918948 (Molecular Pharmacology Branch, DTP, NCI, 2023).
pIC50: −log10 of the molar value.

Tested on: K-562 leukemia growth, % test/control
Experiment: Anticancer human tumor K-562 cell line growth inhibition;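 also: spheroids exposed to compounds for 7 days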;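 as to viability, T/C: 100% = DMSO vehicle wells and lower values mean fewer viable cells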
Conditions: spheroids with HUVEC and MSC; for viability, T/C: stronger effect = lower value
Method in brief: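 Multicellular complex spheroids of tumor cells with human endothelial cells (HUVEC) and mesenchymal stem cells; the LSD1 inhibitor iadademstat was combined with standard-of-care or investigational agents. Top concentration at or near clinical Cmax, half-log dilutions; final DMSO ≤0.25%.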

[1] = curve of first compound, second compound 0.1 µM
[2] = curve of first compound, second compound 0.316 µM
[3] = curve of first compound, second compound 1 µM
[4] = curve of first compound, second compound 3.16 µM
[5] = curve of first compound, second compound 10 µM
[6] = second compound 0.1 µM, first compound 0.0316 µM
[7] = second compound 0.1 µM, first compound 0.1 µM
[8] = second compound 0.1 µM, first compound 0.316 µM
[9] = second compound 0.1 µM, first compound 1 µM
[10] = second compound 0.1 µM, first compound 3.16 µM
[11] = second compound 0.1 µM, first compound 10 µM
[12] = second compound 0.316 µM, first compound 0.0316 µM
[13] = second compound 0.316 µM, first compound 0.1 µM
[14] = second compound 0.316 µM, first compound 0.316 µM
[15] = second compound 0.316 µM, first compound 1 µM
[16] = second compound 0.316 µM, first compound 3.16 µM
[17] = second compound 0.316 µM, first compound 10 µM
[18] = second compound 1 µM, first compound 0.0316 µM
[19] = second compound 1 µM, first compound 0.1 µM
[20] = second compound 1 µM, first compound 0.316 µM
[21] = second compound 1 µM, first compound 1 µM
[22] = second compound 1 µM, first compound 3.16 µM
[23] = second compound 1 µM, first compound 10 µM
[24] = second compound 3.16 µM, first compound 0.0316 µM
[25] = second compound 3.16 µM, first compound 0.1 µM
[26] = second compound 3.16 µM, first compound 0.316 µM
[27] = second compound 3.16 µM, first compound 1 µM
[28] = second compound 3.16 µM, first compound 3.16 µM
[29] = second compound 3.16 µM, first compound 10 µM
[30] = second compound 10 µM, first compound 0.0316 µM
[31] = second compound 10 µM, first compound 0.1 µM
[32] = second compound 10 µM, first compound 0.316 µM
[33] = second compound 10 µM, first compound 1 µM
[34] = second compound 10 µM, first compound 3.16 µM
[35] = second compound 10 µM, first compound 10 µM

Compound	pIC50 [1]	pIC50 [2]	pIC50 [3]	pIC50 [4]	pIC50 [5]	viability, T/C [6] [%]	viability, T/C [7] [%]	viability, T/C [8] [%]	viability, T/C [9] [%]	viability, T/C [12] [%]	viability, T/C [13] [%]	viability, T/C [14] [%]	viability, T/C [15] [%]	viability, T/C [18] [%]	viability, T/C [19] [%]	viability, T/C [20] [%]	viability, T/C [21] [%]	viability, T/C [24] [%]	viability, T/C [25] [%]	viability, T/C [26] [%]	other results
CC1COCCN1c1cc(C2(S(C)(=N)=O)CC2)nc(-c2ccnc3[nH]ccc23)n1 (stereo unspecified) + NC1CCC(NC2CC2c2ccccc2)CC1	6.24	6.22	6.21	6.22	6.29	101	97.5	81.8	21.2	104	96.9	84.5	23.1	106	101	86.2	23.4	103	99.7	84.5	viability, T/C [10]: 3.64%; viability, T/C [11]: 2.72%; viability, T/C [16]: 4.12%; viability, T/C [17]: 2.74%; viability, T/C [22]: 3.81%; viability, T/C [23]: 2.62%; viability, T/C [27]: 22.9%; viability, T/C [28]: 3.69%; viability, T/C [29]: 2.79%; viability, T/C [30]: 96.6%; viability, T/C [31]: 98.2%; viability, T/C [32]: 73.2%; viability, T/C [33]: 17.3%; viability, T/C [34]: 3.62%; viability, T/C [35]: 2.14%
COc1ccc([C@@H](O)c2cc(-c3ncnc4cc(N5CCOCC5)ccc34)c(F)cc2Cl)nn1 + NC1CCC(NC2CC2c2ccccc2)CC1	5.03	5.00	< 5.00	5.01	5.09	100	100	101	103	101	101	104	106	105	103	105	105	101	102	103	viability, T/C [10]: 96.6%; viability, T/C [11]: 46.5%; viability, T/C [16]: 98.2%; viability, T/C [17]: 49.5%; viability, T/C [22]: 98.2%; viability, T/C [23]: 51.8%; viability, T/C [27]: 104%; viability, T/C [28]: 97.4%; viability, T/C [29]: 49.2%; viability, T/C [30]: 99.5%; viability, T/C [31]: 101%; viability, T/C [32]: 101%; viability, T/C [33]: 98.2%; viability, T/C [34]: 91.8%; viability, T/C [35]: 41%
CC1COCCN1c1cc(-c2ccnn2C)c2ccnc(-c3ccn[nH]3)c2n1 (stereo unspecified) + NC1CC1c1ccc(-c2cccc(O)c2)cc1	> 8.50	> 8.50	> 8.50	> 8.50	> 8.50	2.71	1.86	2.44	2.27	2.23	1.78	1.8	1.5	2.17	1.57	1.71	1.4	2.11	1.71	1.83	viability, T/C (second compound 0.1 µM, first compound 0.00316 µM): 28.6%; viability, T/C (second compound 0.1 µM, first compound 0.01 µM): 16.1%; viability, T/C (second compound 0.316 µM, first compound 0.00316 µM): 24.4%; viability, T/C (second compound 0.316 µM, first compound 0.01 µM): 10.3%; viability, T/C (second compound 1 µM, first compound 0.00316 µM): 16.4%; viability, T/C (second compound 1 µM, first compound 0.01 µM): 7.71%; viability, T/C (second compound 3.16 µM, first compound 0.00316 µM): 10.6%; viability, T/C (second compound 3.16 µM, first compound 0.01 µM): 5.99%; viability, T/C [27]: 1.4%; viability, T/C (second compound 10 µM, first compound 0.00316 µM): 6.46%; viability, T/C (second compound 10 µM, first compound 0.01 µM): 4.59%; viability, T/C [30]: 2.33%; viability, T/C [31]: 1.51%; viability, T/C [32]: 1.64%; viability, T/C [33]: 1.74%
CC1(C)CCC(CN2CCN(c3ccc(C(=O)NS(=O)(=O)c4ccc(NCC5CCOCC5)c([N+](=O)[O-])c4)c(Oc4cnc5[nH]ccc5c4)c3)CC2)=C(c2ccc(Cl)cc2)C1 + NC1CC1c1ccc(-c2cccc(O)c2)cc1	5.33	5.33	5.34	5.35	5.50	112	114	118	121	104	109	110	114	102	106	106	108	105	105	107	viability, T/C [10]: 74.6%; viability, T/C [11]: 1.4%; viability, T/C [16]: 75.4%; viability, T/C [17]: 1.76%; viability, T/C [22]: 71.8%; viability, T/C [23]: 1.59%; viability, T/C [27]: 102%; viability, T/C [28]: 70.7%; viability, T/C [29]: 1.97%; viability, T/C [30]: 102%; viability, T/C [31]: 104%; viability, T/C [32]: 105%; viability, T/C [33]: 104%; viability, T/C [34]: 50.4%; viability, T/C [35]: 1.78%
NC1CC1c1ccc(-c2cccc(O)c2)cc1 (stereo unspecified)																					viability, T/C (compound 0.1 µM): 109%; viability, T/C (compound 0.316 µM): 104% [middle of 25 runs]; viability, T/C (compound 1 µM): 99.9% [middle of 25 runs]; viability, T/C (compound 3.16 µM): 100% [middle of 24 runs]; viability, T/C (compound 10 µM): 98.8% [middle of 25 runs]; pIC50 (compound alone, run of 02/01/2022): < 5.00
